Laboratory results as given in PubChem BioAssay AID256 (DTP/NCI, 2004).
Several values for one entry are separate records, joined by “and”; a condition that tells them apart may be missing. Equal entries are not always repeated. Toxic doses and inconclusive results are not listed. How the source made its calls: active means survival T/C of 150% or more; inactive means T/C below 125% in these data.

Tested on: CD2F1 mice, L1210 leukemia ip, survival T/C
Assay: NCI In Vivo Anticancer Drug Screen. Data for tumor model L1210 Leukemia (intraperitoneal) in CD2F1 (CDF1) mice
Conditions: higher = longer survival
Outline: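 Vehicle-treated tumor-bearing mice served as controls (C) for compound-treated mice (T). Reported figure is T divided by C.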

[1] = endpoint: mean survival time, dose: 100.0 mg/kg/injection, schedule: Q01DX009 (ip), vehicle: saline with Tween-80
[2] = endpoint: mean survival time, dose: 100.0 mg/kg/injection, schedule: Q04DX003 (ip), vehicle: saline with Tween-80
[3] = endpoint: mean survival time, dose: 200.0 mg/kg/injection, schedule: Q01DX009 (ip), vehicle: saline with Tween-80
[4] = endpoint: mean survival time, dose: 200.0 mg/kg/injection, schedule: Q04DX003 (ip), vehicle: saline with Tween-80
[5] = endpoint: mean survival time, dose: 400.0 mg/kg/injection, schedule: Q04DX003 (ip), vehicle: saline with Tween-80
[6] = endpoint: mean survival time, dose: 50.0 mg/kg/injection, schedule: Q01DX009 (ip), vehicle: saline with Tween-80
[7] = endpoint: mean survival time, dose: 400.0 mg/kg/injection, schedule: Q01DX009 (ip), vehicle: saline with Tween-80
[8] = endpoint: mean survival time, dose: 75.0 mg/kg/injection, schedule: Q01DX001 (ip), vehicle: saline
[9] = endpoint: mean survival time, dose: 150.0 mg/kg/injection, schedule: Q01DX001 (ip), vehicle: saline
[10] = endpoint: mean survival time, dose: 25.0 mg/kg/injection, schedule: Q01DX009 (ip), vehicle: saline with Tween-80
[11] = endpoint: mean survival time, dose: 100.0 mg/kg/injection, schedule: Q01DX001 (ip), vehicle: saline
[12] = endpoint: mean survival time, dose: 200.0 mg/kg/injection, schedule: Q01DX001 (ip), vehicle: saline
[13] = endpoint: mean survival time, dose: 400.0 mg/kg/injection, schedule: Q01DX001 (ip), vehicle: saline
[14] = endpoint: mean survival time, dose: 100.0 mg/kg/injection, schedule: Q01DX005 (ip), vehicle: saline
[15] = endpoint: mean survival time, dose: 200.0 mg/kg/injection, schedule: Q01DX005 (ip), vehicle: saline

Measured: T/C

C[S+]1C=C(c2ccccc2)C=C(c2ccccc2)C1 (centres undefined)
inactive: endpoint: mean survival time, dose: 7.5 mg/kg/injection, schedule: Q01DX001 (ip), vehicle: saline with Tween-80 114 % of control

O=C(O)c1cccc(COc2ccc([N+](=O)[O-])cc2Cl)c1
inactive: [1] 101 % of control | [2] 91 % of control | [3] 93 % of control | [4] 86 % of control | [5] 97 % of control

CC1C2CCC(C2)C1OC(=O)c1ccccc1C(=O)O (centres undefined) (tested in a mixture with another compound)
inactive: [6] 107 % of control | [1] 102 % of control and 93 % of control | [2] 95 % of control | [3] 95 % of control | [4] 95 % of control | [7] 94 % of control

CN(C)C(c1ccccc1)C(O)c1ccccc1 (centres undefined)
inactive: [8] 103 % of control | [9] 97 % of control

O=C1c2ccccc2C(Cl)(c2ccc(Cl)cc2)c2ccc(Cl)cc21 (centres undefined)
inactive: endpoint: median survival time, dose: 25.0 mg/kg/injection, schedule: Q01DX009 (ip), vehicle: saline with Tween-80 111 % of control | endpoint: median survival time, dose: 50.0 mg/kg/injection, schedule: Q01DX009 (ip), vehicle: saline with Tween-80 112 % of control | endpoint: median survival time, dose: 100.0 mg/kg/injection, schedule: Q01DX009 (ip), vehicle: saline with Tween-80 111 % of control

CC(=O)Nc1nc(C)c(CC/C=C/c2ccc([N+](=O)[O-])cc2)c(=O)[nH]1
inactive: [2] 94 % of control | [4] 97 % of control | [5] 90 % of control

c1ccc2c(c1)OP(OP1Oc3ccccc3O1)O2
inactive: [10] 98 % of control | [6] 98 % of control | [1] 107 % of control | endpoint: mean survival time, dose: 100.0 mg/kg/injection, schedule: Q04DX003 (ip), vehicle: acetone 103 % of control

CCN(CC)c1nc(Cl)nc(NC(C)C)n1
inactive: [1] 100 % of control | endpoint: mean survival time, dose: 100.0 mg/kg/injection, schedule: Q04DX003 (ip), vehicle: saline 103 % of control | [3] 101 % of control | endpoint: mean survival time, dose: 200.0 mg/kg/injection, schedule: Q04DX003 (ip), vehicle: saline 100 % of control | [7] 94 % of control | endpoint: mean survival time, dose: 400.0 mg/kg/injection, schedule: Q04DX003 (ip), vehicle: saline 103 % of control

COc1nc(NC2OC(CO)C(O)C(O)C2O)c(I)c(=O)n1C (centres undefined)
inactive: endpoint: median survival time, dose: 12.5 mg/kg/injection, schedule: Q01DX005 (ip), vehicle: saline with Tween-80 100 % of control | endpoint: median survival time, dose: 25.0 mg/kg/injection, schedule: Q01DX005 (ip), vehicle: saline with Tween-80 100 % of control | endpoint: median survival time, dose: 50.0 mg/kg/injection, schedule: Q01DX005 (ip), vehicle: saline with Tween-80 100 % of control | endpoint: median survival time, dose: 100.0 mg/kg/injection, schedule: Q01DX005 (ip), vehicle: saline with Tween-80 100 % of control | endpoint: median survival time, dose: 200.0 mg/kg/injection, schedule: Q01DX005 (ip), vehicle: saline with Tween-80 101 % of control

Cc1cn(CC(=O)C2(O)CCC3C4CCC5=CC(=O)CCC5(C)C4C(=O)CC32C)c(=O)[nH]c1=O (centres undefined)
inactive: endpoint: mean survival time, dose: 12.5 mg/kg/injection, schedule: Q04DX003 (ip), vehicle: Klucel (hydroxypropylcellulose) (HPC) 94 % of control | endpoint: mean survival time, dose: 25.0 mg/kg/injection, schedule: Q04DX003 (ip), vehicle: Klucel (hydroxypropylcellulose) (HPC) 105 % of control | endpoint: mean survival time, dose: 50.0 mg/kg/injection, schedule: Q04DX003 (ip), vehicle: Klucel (hydroxypropylcellulose) (HPC) 94 % of control | endpoint: mean survival time, dose: 100.0 mg/kg/injection, schedule: Q04DX003 (ip), vehicle: Klucel (hydroxypropylcellulose) (HPC) 94 % of control | endpoint: mean survival time, dose: 200.0 mg/kg/injection, schedule: Q04DX003 (ip), vehicle: Klucel (hydroxypropylcellulose) (HPC) 94 % of control

C[N+]1(C)CC2CCCCC1C2=O (centres undefined)
inactive: [8] 111 % of control | [9] 101 % of control | endpoint: mean survival time, dose: 300.0 mg/kg/injection, schedule: Q01DX001 (ip), vehicle: saline 98 % of control

CN(C)CCNC1=C(Cl)C(=O)c2ccccc2C1=O
inactive: endpoint: mean survival time, dose: 6.25 mg/kg/injection, schedule: Q04DX003 (ip), vehicle: saline with Tween-80 97 % of control | endpoint: mean survival time, dose: 12.5 mg/kg/injection, schedule: Q04DX003 (ip), vehicle: saline with Tween-80 101 % of control | endpoint: mean survival time, dose: 25.0 mg/kg/injection, schedule: Q04DX003 (ip), vehicle: saline with Tween-80 91 % of control and 102 % of control

COc1cc(NCc2ccccc2O)c2ncccc2c1
inactive: endpoint: mean survival time, dose: 50.0 mg/kg/injection, schedule: Q04DX003 (ip), vehicle: saline with Tween-80 91 % of control | [2] 91 % of control | [4] 91 % of control

O=[N+]([O-])c1ccc(N=C(Cl)N2CCCCC2)cc1
inactive: [11] 109 % of control | [12] 103 % of control | [13] 107 % of control

[NH-]NC(=S)[S-].[NH-]NC(=S)[S-].[Pd]
inactive: [2] 91 % of control

CC(=O)/C(=N/O)c1ccccc1
inactive: endpoint: mean survival time, dose: 75.0 mg/kg/injection, schedule: Q01DX009 (ip), vehicle: saline with Tween-80 102 % of control | [2] 102 % of control | endpoint: mean survival time, dose: 150.0 mg/kg/injection, schedule: Q01DX009 (ip), vehicle: saline with Tween-80 94 % of control | [4] 102 % of control | [5] 94 % of control

C(=C\c1cccnc1)/c1ccncc1
inactive: [1] 97 % of control | [3] 95 % of control | [7] 106 % of control

NC(=S)c1c2ccccc2nn1C1OC(CO)C(O)C1O (centres undefined)
inactive: [14] 98 % of control | [15] 101 % of control

COC(=O)c1ncn(C2OC(COC(C)=O)C(OC(C)=O)C2OC(C)=O)c1C(=O)OC (centres undefined)
inactive: endpoint: mean survival time, dose: 12.5 mg/kg/injection, schedule: Q01DX005 (ip), vehicle: water 87 % of control | endpoint: mean survival time, dose: 25.0 mg/kg/injection, schedule: Q01DX005 (ip), vehicle: water 94 % of control | endpoint: mean survival time, dose: 50.0 mg/kg/injection, schedule: Q01DX005 (ip), vehicle: water 90 % of control | endpoint: mean survival time, dose: 100.0 mg/kg/injection, schedule: Q01DX005 (ip), vehicle: water 100 % of control | endpoint: mean survival time, dose: 200.0 mg/kg/injection, schedule: Q01DX005 (ip), vehicle: water 96 % of control

CCOP(=O)(OCC)ON1C(=O)c2cccc3cccc(c23)C1=O
inactive: endpoint: mean survival time, dose: 3.12 mg/kg/injection, schedule: Q01DX009 (ip), vehicle: Klucel (hydroxypropylcellulose) (HPC) 100 % of control | endpoint: mean survival time, dose: 6.25 mg/kg/injection, schedule: Q01DX009 (ip), vehicle: Klucel (hydroxypropylcellulose) (HPC) 95 % of control | endpoint: mean survival time, dose: 12.5 mg/kg/injection, schedule: Q01DX009 (ip), vehicle: Klucel (hydroxypropylcellulose) (HPC) 95 % of control | endpoint: mean survival time, dose: 25.0 mg/kg/injection, schedule: Q01DX009 (ip), vehicle: Klucel (hydroxypropylcellulose) (HPC) 93 % of control

O=c1ccccn1C1CC(O)C(CO)O1 (centres undefined)
inactive: [14] 101 % of control | [15] 103 % of control

CC(C)(c1ccccn1)C(C)(C)c1ccccn1
inactive: [6] 96 % of control | [1] 104 % of control | [3] 100 % of control

O=C(O)CC(NC(=O)OCc1ccccc1)C(=O)OCc1ccccc1 (centres undefined)
inactive: [1] 93 % of control | [2] 104 % of control | [3] 96 % of control | [4] 100 % of control | [5] 87 % of control

O=S(=O)(c1cc(Cl)ccc1O)c1cc(Cl)ccc1O
inactive: [11] 103 % of control | [12] 100 % of control | [13] 100 % of control

CCCCCCCCSC#N
inactive: endpoint: mean survival time, dose: 50.0 mg/kg/injection, schedule: Q01DX001 (ip), vehicle: carboxymethylcellulose (CMC) 100 % of control

COC1OC2COC(c3ccccc3)OC2C(O)C1N (centres undefined)
inactive: [10] 96 % of control | [6] 100 % of control | [1] 103 % of control
